In article PMC6925144, “A prospective compound screening contest identified broader inhibitors for Sirtuin 1” (Scientific Reports, 2019):
Where two headings read alike, the source gives them in different places.

Key:
[1] = tested on: human leukemia U937 cells; parameters: method as in PMID 18348515; details: cited from earlier work
[2] = tested on: Sirtuin 1; details: cited from earlier work
[3] = molecular target: T1, human SIRT1 (Homo sapiens, UniProt Q96EB6); test: Thermal shift assay (TSA) of Sirtuin 1 in the presence of NAD+; assay type: binding; details: with NAD+, n = 4
T1 construct: host or cells: Escherichia coli M15
T1 sequence (Q96EB6 with tags, fused parts or gaps): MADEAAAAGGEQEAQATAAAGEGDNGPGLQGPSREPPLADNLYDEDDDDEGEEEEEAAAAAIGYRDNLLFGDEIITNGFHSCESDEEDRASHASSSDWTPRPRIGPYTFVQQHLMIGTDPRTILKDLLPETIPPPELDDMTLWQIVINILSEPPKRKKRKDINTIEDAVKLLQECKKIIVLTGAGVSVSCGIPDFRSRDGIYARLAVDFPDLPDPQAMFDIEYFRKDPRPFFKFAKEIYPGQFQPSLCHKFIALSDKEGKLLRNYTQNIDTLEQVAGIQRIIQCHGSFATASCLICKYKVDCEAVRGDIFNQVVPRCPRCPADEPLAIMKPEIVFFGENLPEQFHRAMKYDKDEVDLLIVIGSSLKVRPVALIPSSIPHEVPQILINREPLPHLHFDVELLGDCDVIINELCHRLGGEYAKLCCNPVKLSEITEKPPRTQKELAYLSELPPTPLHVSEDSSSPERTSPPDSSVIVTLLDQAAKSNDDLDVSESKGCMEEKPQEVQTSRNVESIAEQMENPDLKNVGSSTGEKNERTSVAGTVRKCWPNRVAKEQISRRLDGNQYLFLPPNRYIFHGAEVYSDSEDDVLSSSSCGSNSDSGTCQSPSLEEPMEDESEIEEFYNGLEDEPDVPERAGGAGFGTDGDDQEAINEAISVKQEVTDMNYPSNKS
Procedure: (§1) A total of 3,192 compounds extracted from the proposed lists were first screened by thermal shift assay (TSA), which determined a melting temperature shift (ΔTm) of Sirtuin 1 upon the addition of a test compound at a concentration of 10 µM (n = 1) with primary hit criteria of ΔTm > 0.45 K or ΔTm < −1.5 K. Primary hits (48 compounds) were retested in the same assay at three concentrations (5, 10, 20 µM, n = 4) for hit confirmation and for dose-dependency check. Secondary hits (41 compounds) were checked their selectivity for Sirtuin 1 based on counterscreening on unrelated protein targets (bovine carbonic anhydrase (CA) and recombinant SH2 domain of hABL1 kinase (ABL1)) at three different concentrations (5, 10, 20 µM, n = 4), which yielded 38 hit compounds, hereafter referred to as TSA hits. The TSA screening above was conducted in the absence of NAD^+. As noted, the structure of Sirtuin 1 is different in the presence of NAD^+ and substrate. The chemical profile of TSA hits found from the different conditions could be different. […] As a result, 39 TSA hits were found. Regardless of the presence of NAD^+, 29 compounds were shared in both TSA hits.
(§2) Table S1. Buffer concentrations used for preparing buffer composition matrix screening plates.
(§3) Buffer Plate 1 (mM) Plate 2 (mM)
(§4) Selection of the optimal buffer composition was based on balancing several criteria including undistorted protein melting curve, maximized melting temperature stability of SIRT1 protein and maximized melting temperature shift induced by the acetylated histone H3K9 peptide (KQTARK(Ac)STGG, a natural substrate of SIRT1). Thermal shift experiments were done at 120 µM H3K9 in the presence of 500 µM NAD+, a co-factor of SIRT1. Separate additions of H3K9 or […]
result, the buffer consisting of 20 mM Tris-HCl pH 8 and 50 mM NaCl was selected for the screening. Purified SIRT1 protein was pre-mixed with SYPRO Orange dye (Thermo Fischer Scientific, Cat. S6650, 5000x stock) to prepare a master mix at 400 µg/mL protein and 10x dye concentration. Tested compounds were added to the protein-dye master mix at 10 µM (1% final DMSO concentration) and incubated for 1 h at 4 °C in MicroAmp® optical 384-well reaction plates (ThermoFisher, Cat. 4309849) sealed with optical sealing film (ThermalSeal RT2, Excel Scientific, Cat. TS-RT2). The volumes of all reaction mixtures were 10 µL (4 µg SIRT1 per well). The reaction plates were then kept at ambient temperature (22-24 °C) for additional 15 minutes to ensure protein-compound interactions. Thermal scanning was performed by raising temperature to 35 °C at 1.6 °C/min without signal detection followed by 35 °C to 75 °C temperature ramp at 0.05 °C/s with constant fluorescence intensity reading at 1 sec intervals using EX470/EM623 nm filter set. Primary screening of the whole test set of 3,192 compounds was carried out in singletons. The raw data of dye fluorescence intensity change upon protein melt were exported using the ViiA7 RUO software (Applied Biosystems/ThermoFischer Scientific). Further data visualization, curve fitting, melting temperature calculations on the raw fluorescence data were performed using custom-made Microsoft Excel scripts developed by us. The peak of the first derivative for the fluorescence curve was used to define melting temperature (Tm). Averaged Tm values for the control wells (64 wells per plate), containing only the protein, dye and 1% DMSO were used as a reference point to determine melting temperature shifts (ΔTm). Hit selection criteria was ΔTm > 0.45 °C or ΔTm < −1.5 °C. All primary hits were re-tested in the same assay at 3 concentrations (20, 10 and 5 µM, n = 4) for hit confirmation

[4] = molecular target: T1, human SIRT1; test: SIRT-Glo luminogenic enzymatic inhibitory assay (inhibition rate and IC50); assay type: biochemical
Procedure: Note that the inhibitory assay was conducted with NAD^+.
Biochemical enzymatic assay for SIRT1
Luminogenic SIRT-Glo™ assay kit was purchased from Promega Corp. (Madison, WI; USA,
Enzymatic activity of SIRT1 in the presence of test compounds
the SIRT-Glo™ assay according to the manufacturer’s instructions (Promega Technical Manual for
SIRT-Glo™ Assay and Screening System). Briefly, the enzymatic reactions were performed in assay
SIRT1 was added to 3 ng/µL concentration to the wells containing tested compounds diluted in the
DMSO concentration) and the reactions (9 µL per well) were pre-incubated for 30 min at ambient
The enzymatic reactions were started by adding 9 µL of SIRT-Glo™
reagent (proprietary composition undisclosed by the vendor) to each assay well.
vigorous mixing using VibraTranslator (Union Scientific, USA) to ensure homogeneity, the plate
was incubated at the ambient temperature for 40 min. The final reaction volumes per well of a
384-well plate were 18 µL (1.5 ng/µL SIRT1: 20 nM). Luminescence signals were measured using
Omega PolarStar microplate reader (BMG Labtech, Ortenberg, Germany). Luminescence values
from the control plate wells with no added enzyme were used as a baseline.
The eight-point IC50 curve was built using 3x serial dilution
Primary compound dilutions were performed
in DMSO and each concentration was tested in quadruplicate. Assay data was analyzed in GraphPad
Prism,6 using Prism's built-in sigmoidal dose-response curve-fit algorithm and default settings of the
fit. Each error bar represents a standard deviation (SD) of inhibition rates for each concentration.
Dose-response curve (DRC) for SIRT1 inhibition by 20 compounds under SIRT-Glo™
assay conditions described in Section C of this supporting information. The determined IC50 value
The eight-point IC50 curves were built using 3x serial
dilution starting from compound concentration of 100 μM. Primary compound dilutions were
performed in DMSO and each concentration was tested in quadruplicate. Assay data was analyzed in
GraphPad Prism,6 using Prism's built-in sigmoidal dose-response curve-fit algorithm and default
Each bar represents a standard deviation (SD) of inhibition rates for each concentration.

[5] = tested on: bovine carbonic anhydrase (CA); test: TSA counterscreening on unrelated protein, carbonic anhydrase; assay type: binding; details: without NAD+
Procedure: as §1

[6] = molecular target: T1, human SIRT1; test: Thermal shift assay (TSA) of Sirtuin 1 without NAD+; assay type: binding; details: without NAD+; for ΔTm at 10 µM: read-out: ΔTm Sirtuin 1
Procedure: as §1
B. Setup and validation of Protein Thermal Shift Assay.
All tested compounds were obtained from the screening compound collection of Enamine Ltd.
(Kiev, Ukraine). Stock solutions of the tested compounds were prepared at 10 mM in 100% DMSO and were stored at −20 °C until use. All thermal shift assay (TSA) experiments with SIRT1 protein were performed using ViiA™7 real-time PCR System equipped with 384-well heat block (Applied Biosystems, USA). General TSA methodology was adopted from the literature3-5 and experimentally modified in order to optimize conditions for measuring SIRT1 melting temperature shifts upon interaction with small molecules. To define the optimal buffer composition for the TSA procedure, a matrix of common buffers combined on a 96-well plate (Figure S3) was tested in thermal melt experiment on a 384-well plate (each buffer composition in quadruplicate). In addition, each buffer composition shown on Figure S3 was tested at two different buffering component concentrations, as listed in Table S1, resulting in two 384-well plate buffer screening experiments and the total of 192 different buffer compositions tested.
Figure S3. Matrix plate of the buffer compositions assessed for TSA optimization.
(1 picture or pasted object on this page, not shown here)
as §2, §3, §4
result, the buffer consisting of 20 mM Tris-HCl pH 8 and 50 mM NaCl was selected for the screening. Purified SIRT1 protein was pre-mixed with SYPRO Orange dye (Thermo Fischer Scientific, Cat. S6650, 5000x stock) to prepare a master mix at 400 µg/mL protein and 10x dye concentration. Tested compounds were added to the protein-dye master mix at 10 µM (1% final DMSO concentration) and incubated for 1 h at 4 °C in MicroAmp® optical 384-well reaction plates (ThermoFisher, Cat. 4309849) sealed with optical sealing film (ThermalSeal RT2, Excel Scientific, Cat. TS-RT2). The volumes of all reaction mixtures were 10 µL (4 µg SIRT1 per well). The reaction plates were then kept at ambient temperature (22-24 °C) for additional 15 minutes to ensure protein-compound interactions. Thermal scanning was performed by raising temperature to 35 °C at 1.6 °C/min without signal detection followed by 35 °C to 75 °C temperature ramp at 0.05 °C/s with […]

[7] = molecular target: T2, recombinant SH2 domain of hABL1 kinase (ABL1) (Homo sapiens, UniProt P00519); test: TSA counterscreening on unrelated protein, ABL1 SH2 domain; assay type: binding; details: without NAD+
T2 construct: recombinant SH2 domain of hABL1 kinase (ABL1)
T2 sequence (P00519 127-217 limits assumed): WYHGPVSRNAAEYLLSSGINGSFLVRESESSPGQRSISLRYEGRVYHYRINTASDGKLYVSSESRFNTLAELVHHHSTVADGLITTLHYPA
Procedure: as §1

[8] = final Sirtuin 1 concentration 20 nM, n = 4, read-out: IC50

## O=C1/C(=C/c2cc(Br)c(O)c(Br)c2)CCC/C1=C\c1cc(Br)c(O)c(Br)c1 [CHEMBL260149]
[1]
  effect on apoptosis induction and granulocytic differentiation: high differentiating activity
[2]; 25 μM
  Inh. rate@25 μM: 0.95 (Inh. rate@25 μM: 50%)[57]

## O=C(CNC(=O)c1nc(-c2ccccc2)no1)Nc1ccccc1 [CHEMBL449117]
[2]; 200 μM
  Inhibition rate@200 μM: 0.64 (Inhibition rate@200 μM: 28%)[69]

## CC1(C)CC(=O)C2=C(C1)N(NC(=O)c1ccncc1)C1=C(C(=O)CC(C)(C)C1)C2c1ccccc1OCc1ccccc1 [CHEMBL1762050]
[2]; 50 μM
  Inh. rate@50 μM: 0.60 (Inh. rate@50 μM = 70%)[71]

## CCNc1ncnc2cc(C(N)=O)sc12 [CHEMBL2332048]
[2]
  IC50: > 50 µM

## COc1ccc(CNCc2c(-c3nnc(SC(C)C)n3-c3ccccc3)n(C)c3ccc(F)cc23)cc1 [CHEMBL2436120]
[2]; 40 μM
  Inh. rate@40 μM: 0.65 (Inh. rate@40 μM: 70%)[70]

## CC(C)(C)NS(=O)(=O)c1ccc2c(c1)Nc1ccccc1CC2 [CHEMBL3222149]
[2]; 100 μM
  Inh. rate@100 μM: 0.65 (Inh. rate@100 μM = 10%)[72]

## COc1ccc(NC(=O)CSc2nnc(Nc3ccc(SC(F)F)cc3)s2)cc1OC [Compound Z21813138]
[3]
  ΔTm, additional TSA experiment: 0.32 K
[4]; [8]
  IC50: 7.7 µM

## O=C1/C(=C\c2cc(Br)cc(Br)c2O)CC/C1=C\c1cc(Br)cc(Br)c1O [Compound Z56773446]
[5]; 5 μM
  ΔTm CA: 0.2 K
[5]; 10 μM
  ΔTm CA: 0.5 K
[5]; 20 μM
  ΔTm CA: 0.5 K
[3]
  ΔTm, additional TSA experiment: −0.05 K
[4]; [8]
  IC50: 4.1 µM
[6]
  ΔTm at 5 µM: 0.4 °C
  ΔTm at 10 µM: 0.6 °C
  ΔTm at 20 µM: 1 °C
[7]
  ΔTm at 5 µM: 0 °C
  ΔTm at 10 µM: 0.1 °C
  ΔTm at 20 µM: 0.2 °C

## O=C1NC(=S)NC(=O)C1=Cc1cn(-c2ccccc2)nc1-c1cc2ccccc2o1 [Compound Z62466600]
[5]; 5 μM
  ΔTm CA: 0.0 K
[5]; 10 μM
  ΔTm CA: 0.0 K
[5]; 20 μM
  ΔTm CA: 0.0 K
[4]
  IC50: 7.1 µM
[6]
  ΔTm at 5 µM: 0.2 °C
  ΔTm at 10 µM: 0.3 °C
  ΔTm at 20 µM: 0.5 °C
[6]; n = 4
  ΔTm, additional TSA experiment: 0.87 K
[7]
  ΔTm at 5 µM: -0.2 °C
  ΔTm at 10 µM: 0.1 °C
  ΔTm at 20 µM: 0 °C
